pIC50: −log10 of the molar value. Calls of active or inactive are those of the source. The rule behind the calls is not given here.
Tests used:
[1] = molecular target: Histone deacetylase 3 (Homo sapiens, UniProt O15379); experiment: Inhibition of recombinant human C-terminal GST-tagged full length HDAC-3 expressed in baculovirus infected in Sf9 cells using Boc-Lys (q-Ac)-AMC as substrate incubated for 10 mins followed by substrate addition and measured after 30 mins by fluorescence based assay
[2] = molecular target: Histone deacetylase 7 (Homo sapiens, UniProt Q8WUI4); experiment: (§1) Inhibition of recombinant human N-terminal GST-tagged HDAC-7 (501 to end residues) expressed in baculovirus infected in Sf9 cells using Boc-Lys (q-Ac)-AMC as substrate incubated for 10 mins followed by substrate addition and measured after 30 mins by fluorescence based assay
[3] = molecular target: Histone deacetylase 7 (Homo sapiens) (UniProt Q8WUI4); experiment: as §1, with “cells at 10 uM” for “cells”, “assay relative to control” for “assay”; conditions: time 40.0 min
[4] = tested on: MDA-MB-231; experiment: Cytotoxicity against human MDA-MB-231 cells assessed as reduction in cell viability incubated for 48 hrs by MTT assay; type: functional, cell-based; conditions: MDA-MB-231, 48 h
[5] = tested on: Bcap37; experiment: Cytotoxicity against human Bcap37 cells assessed as reduction in cell viability incubated for 48 hrs by MTT assay; type: functional, cell-based; conditions: Bcap37, 48 h
[6] = Cytotoxicity against human B16-F10 cells assessed as reduction in cell viability incubated for 48 hrs by MTT assay; type: functional, cell-based; conditions: B16-F10, 48 h
[7] = tested on: PLC; experiment: Cytotoxicity against human PLC cells assessed as reduction in cell viability incubated for 48 hrs by MTT assay; type: functional, cell-based
[8] = tested on: A549; experiment: Cytotoxicity against human A549 cells assessed as reduction in cell viability incubated for 48 hrs by MTT assay; type: functional, cell-based; conditions: A549, 48 h
[9] = tested on: PANC-1; experiment: Cytotoxicity against human PANC-1 cells assessed as reduction in cell viability incubated for 48 hrs by MTT assay; type: functional, cell-based; conditions: PANC-1, 48 h
[10] = tested on: PC-3; experiment: Cytotoxicity against human PC-3 cells assessed as reduction in cell viability incubated for 48 hrs by MTT assay; type: functional, cell-based; conditions: PC-3, 48 h
[11] = tested on: HEK-293T; experiment: Cytotoxicity against human HEK293T cells assessed as reduction in cell viability incubated for 48 hrs by MTT assay; type: ADME, cell-based
[12] = tested on: 4T1; experiment: Potency index, ratio of IC50 of SAHA to IC50 of compound for cytotoxicity against mouse 4T1 cells assessed as reduction in cell viability incubated for 48 hrs by MTT assay; type: functional
[13] = tested on: MCF7; experiment: Potency index, ratio of IC50 of SAHA to IC50 of compound for cytotoxicity against human MCF7 cells assessed as reduction in cell viability incubated for 48 hrs by MTT assay; type: functional
[14] = tested on: MDA-MB-231; experiment: Induction of cell cycle arrest in human MDA-MB-231 cells assessed as G0/G1 phase accumulation at 1 uM incubated for 24 hrs by PI staining based flow cytometry analysis (reference value: 29.10 %); type: functional
[15] = tested on: 4T1; experiment: Induction of cell cycle arrest in mouse 4T1 cells assessed as S phase accumulation at 2 uM incubated for 24 hrs by PI staining based flow cytometry analysis (reference value: 19.43 %); type: functional
[16] = tested on: 4T1; experiment: Induction of cell cycle arrest in mouse 4T1 cells assessed as increase in p21 expression at 0.25 to 5 uM incubated for 24 hrs by Western blot analysis; type: functional, cell-based; conditions: dose 0.25-5 µM
[17] = tested on: MDA-MB-231; experiment: Induction of apoptosis in human MDA-MB-231 cells assessed as viable cells at 1 uM incubated for 72 hrs by annexinV-FITC and PI staining based flow cytometry analysis (reference value: 90.3 %); type: functional; conditions: read-out: Activity
[18] = tested on: MDA-MB-231; experiment: Induction of apoptosis in human MDA-MB-231 cells assessed as viable cells at 2.5 uM incubated for 72 hrs by annexinV-FITC and PI staining based flow cytometry analysis (reference value: 90.3 %); type: functional; conditions: read-out: Activity
[19] = tested on: MDA-MB-231; experiment: Induction of apoptosis in human MDA-MB-231 cells assessed as viable cells at 5 uM incubated for 72 hrs by annexinV-FITC and PI staining based flow cytometry analysis (reference value: 90.3 %); type: functional; conditions: read-out: Activity
[20] = tested on: MDA-MB-231; experiment: Induction of apoptosis in human MDA-MB-231 cells assessed as necrotic cells at 5 uM incubated for 72 hrs by annexinV-FITC and PI staining based flow cytometry analysis (reference value: 0.330 %); type: functional
[21] = tested on: 4T1; experiment: Induction of apoptosis in mouse 4T1 cells assessed as necrotic cells at 1 uM incubated for 72 hrs by annexinV-FITC and PI staining based flow cytometry analysis (reference value: 5.00 %); type: functional
[22] = tested on: 4T1; experiment: Induction of apoptosis in mouse 4T1 cells assessed as necrotic cells at 2.5 uM incubated for 72 hrs by annexinV-FITC and PI staining based flow cytometry analysis (reference value: 5.00 %); type: functional
[23] = tested on: 4T1; experiment: Induction of apoptosis in mouse 4T1 cells assessed as early apoptotic cells at 5 uM incubated for 72 hrs by annexinV-FITC and PI staining based flow cytometry analysis (reference value: 1.65 %); type: functional
[24] = tested on: MDA-MB-231; experiment: Induction of apoptosis in human MDA-MB-231 cells assessed as increase in PARP cleavage incubated for 48 hrs by Western blot analysis; type: functional, cell-based; conditions: dose 0.5-10 µM
[25] = tested on: MDA-MB-231; experiment: Induction of apoptosis in human MDA-MB-231 cells assessed as effect on p53 expression at 0.5 to 10 uM incubated for 48 hrs by Western blot analysis; type: functional, cell-based; conditions: dose 0.5-10 µM
[26] = AUC (0 to infinity) in Sprague-Dawley rat at 20 mg/kg, po measured upto 12 hrs by LC-MS/MS analysis; type: ADME, organism-based; design: route oral, dose 20 mg/kg, time <=12; conditions: in vivo
[27] = Tmax in Sprague-Dawley rat at 20 mg/kg, po measured upto 12 hrs by LC-MS/MS analysis; type: ADME, organism-based; conditions: in vivo
[28] = Cmax in Sprague-Dawley rat at 20 mg/kg, iv measured upto 12 hrs by LC-MS/MS analysis; type: ADME, organism-based; design: route intravenous, dose 20 mg/kg, time <=12; conditions: in vivo
[29] = AUC (0 to infinity) in Sprague-Dawley rat at 20 mg/kg, iv measured upto 12 hrs by LC-MS/MS analysis; type: ADME, organism-based; design: route intravenous, dose 20 mg/kg, time <=12; conditions: in vivo
[30] = Tmax in Sprague-Dawley rat at 20 mg/kg, iv measured upto 12 hrs by LC-MS/MS analysis; type: ADME, organism-based; conditions: in vivo
[31] = MRT in Sprague-Dawley rat at 20 mg/kg, iv measured upto 12 hrs by LC-MS/MS analysis; type: ADME, organism-based; conditions: in vivo
[32] = tested on: 4T1; experiment: Antitumor activity against mouse 4T1 cells xenografted in BALB/c mouse assessed as tumor growth inhibition at 20 mg/kg, ip administered for 22 days and measured on day 22; type: functional, organism-based; conditions: time 22.0 day
[33] = tested on: 4T1; experiment: Antitumor activity against mouse 4T1 cells xenografted in BALB/c mouse assessed as tumor growth inhibition at 50 mg/kg, po administered for 22 days and measured on day 22; type: functional, organism-based; conditions: time 22.0 day
[34] = Toxicity in BALB/c mouse xenografted with mouse 4T1 cells assessed as effect on body weight at 50 mg/kg, po administered for 22 days and measured on day 22; type: organism-based; conditions: in vivo, 528 h, time 22 day
[35] = Toxicity in BALB/c mouse xenografted with human MDA-MB-231 cells assessed as effect on body weight at 25 mg/kg, ip administered for 34 days and measured on day 34; type: organism-based; conditions: in vivo, 816 h, time 34 day

Sequence of Histone deacetylase 7 (Homo sapiens) (Q8WUI4 whole entry): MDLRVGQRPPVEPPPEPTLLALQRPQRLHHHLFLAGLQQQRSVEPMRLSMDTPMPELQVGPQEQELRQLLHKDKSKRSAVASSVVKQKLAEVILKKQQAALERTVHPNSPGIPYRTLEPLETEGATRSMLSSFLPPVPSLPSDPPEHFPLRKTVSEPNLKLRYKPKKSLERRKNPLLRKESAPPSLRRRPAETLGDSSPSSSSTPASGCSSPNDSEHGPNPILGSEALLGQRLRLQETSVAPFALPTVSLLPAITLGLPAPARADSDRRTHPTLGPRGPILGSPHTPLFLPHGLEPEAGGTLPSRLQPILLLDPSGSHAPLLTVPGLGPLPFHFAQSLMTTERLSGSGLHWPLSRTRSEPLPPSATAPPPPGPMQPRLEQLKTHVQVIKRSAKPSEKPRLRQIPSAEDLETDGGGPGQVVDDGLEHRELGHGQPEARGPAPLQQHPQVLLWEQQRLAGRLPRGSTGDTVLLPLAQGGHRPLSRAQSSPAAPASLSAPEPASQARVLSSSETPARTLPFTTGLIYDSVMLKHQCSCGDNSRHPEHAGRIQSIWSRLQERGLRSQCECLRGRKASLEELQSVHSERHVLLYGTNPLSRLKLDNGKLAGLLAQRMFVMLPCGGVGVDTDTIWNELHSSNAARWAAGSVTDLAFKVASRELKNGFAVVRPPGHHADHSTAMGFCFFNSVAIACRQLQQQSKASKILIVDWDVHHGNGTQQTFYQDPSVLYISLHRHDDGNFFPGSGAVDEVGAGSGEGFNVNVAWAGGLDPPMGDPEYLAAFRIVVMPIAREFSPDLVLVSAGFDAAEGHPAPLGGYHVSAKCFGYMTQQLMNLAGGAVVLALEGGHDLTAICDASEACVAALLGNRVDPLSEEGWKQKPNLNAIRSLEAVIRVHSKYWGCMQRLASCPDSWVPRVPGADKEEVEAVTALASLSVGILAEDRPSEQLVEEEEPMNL
Sequence of Histone deacetylase 7 (Q8WUI4 whole entry): as above
Sequence of Histone deacetylase 3 (O15379 whole entry): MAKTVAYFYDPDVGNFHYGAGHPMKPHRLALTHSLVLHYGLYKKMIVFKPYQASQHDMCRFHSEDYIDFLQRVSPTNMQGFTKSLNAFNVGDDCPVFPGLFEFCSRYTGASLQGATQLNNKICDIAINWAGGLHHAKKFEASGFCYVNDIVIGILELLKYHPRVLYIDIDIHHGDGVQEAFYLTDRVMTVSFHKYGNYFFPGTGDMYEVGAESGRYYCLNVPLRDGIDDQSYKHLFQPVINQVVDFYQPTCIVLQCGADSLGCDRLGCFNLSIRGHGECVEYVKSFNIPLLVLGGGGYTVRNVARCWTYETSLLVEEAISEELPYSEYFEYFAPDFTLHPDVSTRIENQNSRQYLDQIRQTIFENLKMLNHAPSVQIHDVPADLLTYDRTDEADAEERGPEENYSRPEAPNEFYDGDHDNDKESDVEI

**Q.** With `CN(C)CCOc1ccc(-c2cc(=O)c3c(O)cc(OCCCCCC(=O)NO)cc3o2)cc1.Cl` as the compound, how does the pIC50 [1] read?
**A.** Its pIC50 is 7.10.

**Q.** And the pIC50 [2]?
**A.** The pIC50 was < 5.00.

**Q.** What about the inhibition [3] of the same compound?
**A.** Its inhibition is 43%.

**Q.** What about the pIC50 [4] of the same compound?
**A.** The pIC50 was 5.69.

**Q.** What about the pIC50 [5] of the same compound?
**A.** Its pIC50 is 5.48.

**Q.** What about the pIC50 [6] of the same compound?
**A.** The pIC50 was 6.29.

**Q.** And the pIC50 [7]?
**A.** The pIC50 was 6.24.

**Q.** And the pIC50 [8]?
**A.** The pIC50 was 5.97.

**Q.** And the pIC50 [9]?
**A.** The pIC50 was < 5.00.

**Q.** And the pIC50 [10]?
**A.** Its pIC50 is 5.72.

**Q.** And the pIC50 [11]?
**A.** Its pIC50 is < 5.00.

**Q.** And the “Ratio IC50” value [12]?
**A.** Its value is 2.

**Q.** What about the “Ratio IC50” value [13] of the same compound?
**A.** Its value is 2.

**Q.** And the Activity [14]?
**A.** The Activity was 49.09%.

**Q.** What about the Activity [15] of the same compound?
**A.** The Activity was 25.58%.

**Q.** What about the Activity [16] of the same compound?
**A.** Its Activity is “Active”.

**Q.** And the viability at 1 µM [17]?
**A.** Its viability at 1 µM is 64.8%.

**Q.** And the viability at 2.5 µM [18]?
**A.** The viability at 2.5 µM was 25.5%.

**Q.** And the viability at 5 µM [19]?
**A.** Its viability at 5 µM is 17.2%.

**Q.** What about the Activity [20] of the same compound?
**A.** Its Activity is 0.06%.

**Q.** And the Activity [21]?
**A.** The Activity was 3.6%.

**Q.** And the Activity [22]?
**A.** Its Activity is 1.8%.

**Q.** What about the Activity [23] of the same compound?
**A.** The Activity was 54.9%.

**Q.** And the Activity [24]?
**A.** Its Activity is “Dose-dependent effect”.

**Q.** What about the Activity [25] of the same compound?
**A.** The Activity was “inactive”.

**Q.** What about the AUC(0-inf) [26] of the same compound?
**A.** The AUC(0-inf) was 1640 ng·h/mL.

**Q.** And the Tmax [27]?
**A.** Its Tmax is 20 min.

**Q.** And the Cmax [28]?
**A.** The Cmax was 2180 ng/mL.

**Q.** What about the AUC(0-inf) [29] of the same compound?
**A.** Its AUC(0-inf) is 2840 ng·h/mL.

**Q.** And the Tmax [30]?
**A.** Its Tmax is 4.98 min.

**Q.** What about the MRT [31] of the same compound?
**A.** The MRT was 74.9 min.

**Q.** What about the TGI [32] of the same compound?
**A.** The TGI was “Active”.

**Q.** And the TGI [33]?
**A.** The TGI was “Active”.

**Q.** And the Activity [34]?
**A.** Its Activity is “Non-Toxic”.

**Q.** And the Activity [35]?
**A.** Its Activity is “Non-Toxic”.

Source: ChEMBL document CHEMBL4765432, “Design and synthesis of novel Flavone-based histone deacetylase inhibitors antagonizing activation of STAT3 in breast cancer” (Eur J Med Chem, 2020)
